Results taken from patent US20150175599A1, “FAAH Inhibitors” (Ironwood Pharmaceuticals, Inc., priority 2010, published 2015).

Target: T1, FAAH (Rattus norvegicus, UniProt P97612)
T1 construct: For the assay of FAAH activity in rat brain membrane (RBM) homogenates; tissue Charles River (animals); host or cells: rat whole brain, membrane fraction
T1 sequence (P97612 1-579): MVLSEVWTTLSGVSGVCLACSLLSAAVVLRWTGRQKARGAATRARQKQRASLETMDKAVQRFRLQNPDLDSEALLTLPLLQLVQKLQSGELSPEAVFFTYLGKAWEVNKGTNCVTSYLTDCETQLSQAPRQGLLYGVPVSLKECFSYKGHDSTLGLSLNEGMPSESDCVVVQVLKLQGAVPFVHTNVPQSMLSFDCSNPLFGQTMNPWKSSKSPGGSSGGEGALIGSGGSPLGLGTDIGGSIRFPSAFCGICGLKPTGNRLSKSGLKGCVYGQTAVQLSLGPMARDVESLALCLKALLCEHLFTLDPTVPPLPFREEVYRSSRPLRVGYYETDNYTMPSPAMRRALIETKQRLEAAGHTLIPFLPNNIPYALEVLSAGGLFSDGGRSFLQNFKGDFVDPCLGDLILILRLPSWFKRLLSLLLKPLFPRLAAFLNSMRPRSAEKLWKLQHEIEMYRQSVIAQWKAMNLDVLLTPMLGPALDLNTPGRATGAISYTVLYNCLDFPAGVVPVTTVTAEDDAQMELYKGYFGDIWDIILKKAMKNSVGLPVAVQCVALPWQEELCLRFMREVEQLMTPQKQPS
Assay: FAAH inhibition, rat brain membrane homogenate assay
Format: biochemical
Conditions: rat brain homogenate; average activity; read-out: Rat Brain Extract FAAH IC50
Protocol: Adult rats (Charles River CD strain, female, 200 g) were anaesthetized with isofluorane and rapidly decapitated. Each brain was quickly removed and chilled in tubes (3 brains per tube) on ice. About 25 mL of “homogenization buffer” (20 mM HEPES buffer, pH 7.0, with 1 mM MgCl2) was added to 15 to 20 g of brain. The brains were homogenized on ice for 1 minute using an Omni GLH homogenizer (Omni International, Marietta, Ga.). The homogenates were then transferred to three centrifuge tubes and centrifuged at 36,500 g for 20 minutes at 4° C. The supernatant was discarded and each pellet was re-suspended in 25 mL homogenization buffer. The re-suspended material was again centrifuged (36,500 g, 20 minutes at 4° C.). Pellets were combined by re-suspension in 10 mL of homogenization buffer and incubated in a 37° C. water bath for 15 minutes. The tubes were then placed on ice for 5 minutes followed by centrifugation at 36,500 g for 20 minutes at 4° C. The supernatant was discarded and the membrane pellets were then re-suspended in 40 mL of “re-suspension buffer” (50 mM Tris-HCl buffer, pH 7.4, containing 1 mM EDTA and 3 mM MgCl2). A Bradford Protein assay was performed to determine protein concentration. The protein was aliquotted into screw cap Cryo tubes each containing −400 μL, flash-frozen in liquid nitrogen and stored at −80° C. until used for the assay. A similar protocol was used to obtain brain membrane homogenates from mice
FAAH activity was assayed in the respective homogenates described herein (Rat brain, Mouse brain or Human brain) with certain of the exemplary compounds described above using a modification of the method of Omeir et al. (1995 Life Sci. 56:1999) and Fowler et al. (1997 J. Pharmacol. Exp. Ther. 283:729). For the assay of FAAH activity in rat brain membrane (RBM) homogenates, RBM homogenates (7 μg protein in 20 μL final volume of 10 mM Tris pH 6.5) were mixed with 180 μL of a mixture of the following: […] unlabelled anandamide (AEA), 0.03 Ci radio labeled anandamide [ethanolamine 1-^3H](40-60 Ci/mmol; product number ART-626, American Radiolabelled Chemicals, St. Louis, Mo.), 1 mg/mL Bovine Serum Albumin (fatty acid-free BSA, electrophoresis grade, Sigma, St. Louis, Mo.), 10 mM Tris-HCl (pH 6.5), and 1 mM EDTA in the presence and absence of test compounds (vehicle was DMSO at a final concentration of 1%) and incubated for 10 minutes at 37° C. Samples were placed on ice to terminate the reactions.
The ^3H-ethanolamine product and un-reacted ^3H-anandamide substrate were then separated by either: (1) using chloroform/methanol extraction or (2) passing the reaction mixture through a glass fiber filter containing activated charcoal. Samples were extracted with chloroform/methanol by adding 0.4 mL of chloroform/methanol (1:1 v/v), vigorously mixing the samples, and separating the aqueous and organic phases by centrifugation. Radioactivity (corresponding to FAAH-catalyzed breakdown of ^3H-anandamide) found in aliquots (0.2 mL) of the aqueous phase was determined by liquid scintillation counting with quench correction. IC50 values were determined as described by Jonsson et al. (2001 Br. J Pharmacol. 133:1263). Alternatively, reactions were purified using a modification of the solid-phase extraction method described by Wilson et al (2003 Anal. Biochem. 318: 270). This method was modified as follows: after reactions were incubated at 37° C. for 10 minutes and chilled on ice, the reaction mixtures were acidified by adding 10 μL of sodium phosphate solution[0.5M (pH 2.0)]. Next, 90 μL aliquots of the acidified reaction mixtures were applied to activated charcoal (that had been previously washed with methanol as described by Wilson et al. (supra)) containing 80 μL of water on top of a glass fiber filter, centrifuged, and the radioactivity in the eluate was counted as described previously by Wilson et al. (supra). […]

Structure (SMILES)	IC50 [nM]
COc1ccc2c(c1)c(C(=O)C(=O)Nc1cc(Cl)nc(OC)c1)c(C)n2Cc1ccc(Cl)cc1 [Compound 47, N-(2-chloro-6-methoxypyridin-4-yl)-2-(1-(4-chlorobenzyl)-5-methoxy-2-methyl-1H-indol-3-yl)-2-oxoacetamide]	< 100
COc1ccc2c(C(=O)C(=O)Nc3ccnc(OC)c3)c(C)n(Cc3ccc(Cl)cc3)c2c1 [Compound 48, 2-(1-(4-chlorobenzyl)-6-methoxy-2-methyl-1H-indol-3-yl)-N-(2-methoxypyridin-4-yl)-2-oxoacetamide]	< 100
COc1ccc2c(c1)c(C(=O)C(=O)Nc1ccnc(O)c1)c(C)n2Cc1ccc(Cl)cc1 [Compound 50, 2-(1-(4-chlorobenzyl)-5-methoxy-2-methyl-1H-indol-3-yl)-N-(2-hydroxypyridin-4-yl)-2-oxoacetamide]	1000 to 10000
COc1cc(NC(=O)C(=O)c2c(C)n(Cc3ccc(Cl)cc3)c3c(OC)cccc23)ccn1 [Compound 51, 2-(1-(4-chlorobenzyl)-7-methoxy-2-methyl-1H-indol-3-yl)-N-(2-methoxypyridin-4-yl)-2-oxoacetamide]	1000 to 10000
COc1ccc2c(c1)c(C(=O)C(=O)Nc1ccnc(OC)c1Cl)c(C)n2Cc1ccc(Cl)cc1 [Compound 52, N-(3-chloro-2-methoxypyridin-4-yl)-2-(1-(4-chlorobenzyl)-5-methoxy-2-methyl-1H-indol-3-yl)-2-oxoacetamide]	> 10000
COc1ccc2c(c1)c(C(=O)C(=O)Nc1ccnc(OC)c1F)c(C)n2Cc1ccc(Cl)cc1 [Compound 53, 2-(1-(4-chlorobenzyl)-5-methoxy-2-methyl-1H-indol-3-yl)-N-(3-fluoro-2-methoxypyridin-4-yl)-2-oxoacetamide]	< 100
COc1ccc2c(c1)c(C(=O)C(=O)Nc1cc(OC)ncc1F)c(C)n2Cc1ccc(Cl)cc1 [Compound 54, 2-(1-(4-chlorobenzyl)-5-methoxy-2-methyl-1H-indol-3-yl)-N-(5-fluoro-2-methoxypyridin-4-yl)-2-oxoacetamide]	< 100
COc1cc(NC(=O)C(=O)c2c(C)n(Cc3ccc(Cl)cc3)c3cc(Cl)c(OC)cc23)ccn1 [Compound 55, 2-(6-chloro-1-(4-chlorobenzyl)-5-methoxy-2-methyl-1H-indol-3-yl)-N-(2-methoxypyridin-4-yl)-2-oxoacetamide]	< 100
COc1cc(NC(=O)C(=O)c2c(C)n(Cc3ccc(Cl)cc3)c3ccc(OC)c(OC)c23)ccn1 [Compound 56, 2-(1-(4-chlorobenzyl)-4,5-dimethoxy-2-methyl-1H-indol-3-yl)-N-(2-methoxypyridin-4-yl)-2-oxoacetamide]	1000 to 10000
COc1cc(NC(=O)C(=O)c2c(C)n(Cc3ccc(Cl)cc3)c3ccc(OC)c(Cl)c23)ccn1 [Compound 58, 2-(4-chloro-1-(4-chlorobenzyl)-5-methoxy-2-methyl-1H-indol-3-yl)-N-(2-methoxypyridin-4-yl)-2-oxoacetamide]	100 to 1000
COc1cc(NC(=O)C(=O)c2c(C)n(Cc3ccc(Cl)cc3)c3ccc(OC)c(F)c23)ccn1 [Compound 59, 2-(1-(4-chlorobenzyl)-4-fluoro-5-methoxy-2-methyl-1H-indol-3-yl)-N-(2-methoxypyridin-4-yl)-2-oxoacetamide]	< 100
COc1cc(NC(=O)C(=O)c2c(C)n(Cc3ccc(Cl)cn3)c3cc(Cl)c(OC)cc23)ccn1 [Compound 60, 2-(6-chloro-1-((5-chloropyridin-2-yl)methyl)-5-methoxy-2-methyl-1H-indol-3-yl)-N-(2-methoxypyridin-4-yl)-2-oxoacetamide]	< 100
COc1cc(NC(=O)C(=O)c2c(C)n(Cc3ccc(Cl)cn3)c3ccc(C)cc23)ccn1 [Compound 61, 2-(1-((5-chloropyridin-2-yl)methyl)-2,5-dimethyl-1H-indol-3-yl)-N-(2-methoxypyridin-4-yl)-2-oxoacetamide]	< 100
COc1cc(NC(=O)C(=O)c2c(C)n(Cc3ccc(Cl)cn3)c3ccc([N+](=O)[O-])cc23)ccn1 [Compound 62, 2-(1-((5-chloropyridin-2-yl)methyl)-2-methyl-5-nitro-1H-indol-3-yl)-N-(2-methoxypyridin-4-yl)-2-oxoacetamide]	< 100
COc1cc(NC(=O)C(=O)c2c(C)n(Cc3ccc(Cl)cn3)c3ccc(Cl)cc23)ccn1 [Compound 63, 2-(5-chloro-1-((5-chloropyridin-2-yl)methyl)-2-methyl-1H-indol-3-yl)-N-(2-methoxypyridin-4-yl)-2-oxoacetamide]	< 100
COc1cc(NC(=O)C(=O)c2c(C)n(Cc3ccc(Cl)cn3)c3cc(F)c(OC)cc23)ccn1 [Compound 64, 2-(1-((5-chloropyridin-2-yl)methyl)-6-fluoro-5-methoxy-2-methyl-1H-indol-3-yl)-N-(2-methoxypyridin-4-yl)-2-oxoacetamide]	< 100
COc1cc(NC(=O)C(=O)c2c(C)n(Cc3ccc(Cl)cn3)c3ccc(N)cc23)ccn1 [Compound 65, 2-(5-amino-1-((5-chloropyridin-2-yl)methyl)-2-methyl-1H-indol-3-yl)-N-(2-methoxypyridin-4-yl)-2-oxoacetamide]	< 100
COc1cc(NC(=O)C(=O)c2c(C)n(Cc3ccc(Cl)cn3)c3ccc(N(C)C)cc23)ccn1 [Compound 66, 2-(1-((5-chloropyridin-2-yl)methyl)-5-(dimethylamino)-2-methyl-1H-indol-3-yl)-N-(2-methoxypyridin-4-yl)-2-oxoacetamide]	< 100
COc1cc(NC(=O)C(=O)c2c(C)n(Cc3ccc(Cl)cn3)c3cc(OC)c(Cl)cc23)ccn1 [Compound 67, 2-(5-chloro-1-((5-chloropyridin-2-yl)methyl)-6-methoxy-2-methyl-1H-indol-3-yl)-N-(2-methoxypyridin-4-yl)-2-oxoacetamide]	< 100
COc1cc(NC(=O)C(=O)c2c(C)n(Cc3ccc(Cl)cn3)c3ccccc23)ccn1 [Compound 68, 2-(1-((5-chloropyridin-2-yl)methyl)-2-methyl-1H-indol-3-yl)-N-(2-methoxypyridin-4-yl)-2-oxoacetamide]	< 100
COc1ccc(Cn2c(C)c(C(=O)C(=O)Nc3ccnc(OC)c3)c3cc(C)ccc32)nc1 [Compound 69, 2-(1-((5-methoxypyridin-2-yl)methyl)-2,5-dimethyl-1H-indol-3-yl)-N-(2-methoxypyridin-4-yl)-2-oxoacetamide]	< 100
COc1cc(NC(=O)C(=O)c2c(C)n(Cc3ncc(Cl)cc3Cl)c3cc(Cl)c(OC)cc23)ccn1 [Compound 70, 2-(6-chloro-1-((3,5-dichloropyridin-2-yl)methyl)-5-methoxy-2-methyl-1H-indol-3-yl)-N-(2-methoxypyridin-4-yl)-2-oxoacetamide]	< 100
